Results taken from ChEMBL document CHEMBL1649565, “Besifloxacin, a novel fluoroquinolone, has broad-spectrum in vitro activity against aerobic and anaerobic bacteria” (Antimicrob Agents Chemother, 2009).
In brackets after ≈: the same amount, converted by molar mass. Activity calls are given as the source filed them. No cut-off for these calls is given here.

Assays:
[1] = tested on: Serratia marcescens; test: Antibacterial activity against levofloxacin susceptible Serratia marcescens assessed as percent susceptible isolates by CLSI M7-A7 method; assay type: functional
[2] = tested on: Stenotrophomonas maltophilia; test: Antibacterial activity against non-levofloxacin susceptible Stenotrophomonas maltophilia assessed as percent susceptible isolates by CLSI M7-A7 method; assay type: functional
[3] = tested on: Serratia marcescens; test: Antibacterial activity against Serratia marcescens by CLSI M7-A7 method; assay type: functional
[4] = tested on: Stenotrophomonas maltophilia; test: Antibacterial activity against non-levofloxacin susceptible Stenotrophomonas maltophilia by CLSI M7-A7 method; assay type: functional
[5] = tested on: Enterobacter cloacae; test: Antibacterial activity against Enterobacter cloacae assessed as percent susceptible isolates by CLSI M7-A7 method; assay type: functional
[6] = tested on: Stenotrophomonas maltophilia; test: Antibacterial activity against levofloxacin-susceptible Stenotrophomonas maltophilia by CLSI M7-A7 method; assay type: functional
[7] = tested on: Proteus mirabilis; test: Antibacterial activity against Proteus mirabilis by CLSI M7-A7 method; assay type: functional
[8] = tested on: Klebsiella pneumoniae; test: Antibacterial activity against Klebsiella pneumoniae by CLSI M7-A7 method; assay type: functional
[9] = tested on: Klebsiella aerogenes; test: Antibacterial activity against Enterobacter aerogenes by CLSI M7-A7 method; assay type: functional
[10] = tested on: Acinetobacter calcoaceticus; test: Antibacterial activity against Acinetobacter calcoaceticus assessed as percent susceptible isolates by CLSI M7-A7 method; assay type: functional
[11] = tested on: Proteus vulgaris; test: Antibacterial activity against Proteus vulgaris by CLSI M7-A7 method; assay type: functional
[12] = tested on: Acinetobacter calcoaceticus; test: Antibacterial activity against Acinetobacter calcoaceticus by CLSI M7-A7 method; assay type: functional
[13] = tested on: Pseudomonas aeruginosa; test: Antibacterial activity against ciprofloxacin-susceptible Pseudomonas aeruginosa by CLSI M7-A7 method; assay type: functional
[14] = tested on: Citrobacter freundii; test: Antibacterial activity against Citrobacter freundii assessed as percent susceptible isolates by CLSI M7-A7 method; assay type: functional
[15] = tested on: Enterobacter cloacae; test: Antibacterial activity against Enterobacter cloacae by CLSI M7-A7 method; assay type: functional
[16] = tested on: Pseudomonas aeruginosa; test: Antibacterial activity against ciprofloxacin-susceptible Pseudomonas aeruginosa assessed as percent susceptible isolates by CLSI M7-A7 method; assay type: functional
[17] = tested on: Citrobacter freundii; test: Antibacterial activity against Citrobacter freundii by CLSI M7-A7 method; assay type: functional
[18] = tested on: Klebsiella aerogenes; test: Antibacterial activity against Enterobacter aerogenes assessed as percent susceptible isolates by CLSI M7-A7 method; assay type: functional
[19] = tested on: Klebsiella pneumoniae; test: Antibacterial activity against Klebsiella pneumoniae assessed as percent susceptible isolates by CLSI M7-A7 method; assay type: functional
[20] = tested on: Pseudomonas aeruginosa; test: Antibacterial activity against non-ciprofloxacin-susceptible Pseudomonas aeruginosa assessed as percent susceptible isolates by CLSI M7-A7 method; assay type: functional
[21] = tested on: Stenotrophomonas maltophilia; test: Antibacterial activity against levofloxacin-susceptible Stenotrophomonas maltophilia assessed as assessed as percent susceptible isolates by CLSI M7-A7 method; assay type: functional
[22] = tested on: Acinetobacter lwoffii; test: Antibacterial activity against Acinetobacter lwoffii assessed as percent susceptible isolates by CLSI M7-A7 method; assay type: functional
[23] = tested on: Proteus mirabilis; test: Antibacterial activity against Proteus mirabilis assessed as percent susceptible isolates by CLSI M7-A7 method; assay type: functional
[24] = tested on: Acinetobacter baumannii; test: Antibacterial activity against Acinetobacter baumannii by CLSI M7-A7 method; assay type: functional
[25] = tested on: Proteus vulgaris; test: Antibacterial activity against Proteus vulgaris assessed as percent susceptible isolates by CLSI M7-A7 method; assay type: functional
[26] = tested on: Pseudomonas aeruginosa; test: Antibacterial activity against non-ciprofloxacin-susceptible Pseudomonas aeruginosa by CLSI M7-A7 method; assay type: functional
[27] = tested on: Acinetobacter lwoffii; test: Antibacterial activity against Acinetobacter lwoffii by CLSI M7-A7 method; assay type: functional
[28] = tested on: Acinetobacter baumannii; test: Antibacterial activity against Acinetobacter baumannii assessed as percent susceptible isolates by CLSI M7-A7 method; assay type: functional
[29] = tested on: Staphylococcus haemolyticus; test: Antibacterial activity against Staphylococcus haemolyticus assessed as percent susceptible isolates by CLSI M100-S18 method; assay type: functional
[30] = tested on: Staphylococcus lugdunensis; test: Antibacterial activity against Staphylococcus lugdunensis by CLSI M100-S18 method; assay type: functional
[31] = tested on: Staphylococcus epidermidis; test: Antibacterial activity against non-ciprofloxacin-susceptible and methicillin-susceptible Staphylococcus epidermidis by CLSI M100-S18 method; assay type: functional
[32] = tested on: Staphylococcus saprophyticus; test: Antibacterial activity against Staphylococcus saprophyticus by CLSI M100-S18 method; assay type: functional
[33] = tested on: Staphylococcus epidermidis; test: Antibacterial activity against ciprofloxacin-susceptible and methicillin-resistant Staphylococcus epidermidis assessed as percent susceptible isolates by CLSI M100-S18 method; assay type: functional
[34] = tested on: Staphylococcus warneri; test: Antibacterial activity against Staphylococcus warneri assessed as percent susceptible isolates by CLSI M100-S18 method; assay type: functional
[35] = tested on: Staphylococcus epidermidis
[36] = tested on: Staphylococcus aureus; test: Antibacterial activity against ciprofloxacin-susceptible and methicillin-resistant Staphylococcus aureus by CLSI M100-S18 method; assay type: functional
[37] = tested on: Staphylococcus hominis; test: Antibacterial activity against Staphylococcus hominis by CLSI M100-S18 method; assay type: functional
[38] = tested on: Staphylococcus aureus; test: Antibacterial activity against ciprofloxacin-susceptible and methicillin-resistant Staphylococcus aureus assessed as percent susceptible isolates by CLSI M100-S18 method; assay type: functional
[39] = tested on: Staphylococcus epidermidis; test: Antibacterial activity against ciprofloxacin-susceptible and methicillin-resistant Staphylococcus epidermidis by CLSI M100-S18 method; assay type: functional
[40] = tested on: Staphylococcus warneri; test: Antibacterial activity against Staphylococcus warneri by CLSI M100-S18 method; assay type: functional
[41] = tested on: Staphylococcus haemolyticus; test: Antibacterial activity against Staphylococcus haemolyticus by CLSI M100-S18 method; assay type: functional
[42] = tested on: Staphylococcus hominis; test: Antibacterial activity against Staphylococcus hominis assessed as percent susceptible isolates by CLSI M100-S18 method; assay type: functional
[43] = tested on: Staphylococcus aureus; test: Antibacterial activity against non-ciprofloxacin-susceptible and methicillin-susceptible Staphylococcus aureus by CLSI M100-S18 method; assay type: functional
[44] = tested on: Staphylococcus aureus; test: Antibacterial activity against non-ciprofloxacin-susceptible and methicillin-susceptible Staphylococcus aureus assessed as percent susceptible isolates by CLSI M100-S18 method; assay type: functional
[45] = tested on: Staphylococcus epidermidis; remark: listed apart in the source
[46] = tested on: Staphylococcus lugdunensis; test: Antibacterial activity against Staphylococcus lugdunensis assessed as percent susceptible isolates by CLSI M100-S18 method; assay type: functional
[47] = tested on: Staphylococcus epidermidis; test: Antibacterial activity against non-ciprofloxacin-susceptible and methicillin-susceptible Staphylococcus epidermidis assessed as percent susceptible isolates by CLSI M100-S18 method; assay type: functional
[48] = tested on: Moraxella catarrhalis; test: Antibacterial activity against Moraxella catarrhalis by CLSI M7-A7 method; assay type: functional
[49] = tested on: Staphylococcus saprophyticus; test: Antibacterial activity against Staphylococcus saprophyticus assessed as percent susceptible isolates by CLSI M100-S18 method; assay type: functional

C[C@@H](O)[C@H]1C(=O)N2C(C(=O)O)=C(SCCNC=N)C[C@H]12 [IMIPENEM ANHYDROUS]
Activity [1]: 91% | Activity [2]: 22.9% | MIC50 [3]: 2 µg/mL (≈ 6.68 µM) | MIC90 [3]: 4 µg/mL (≈ 13.4 µM) | MIC [4]: 1 µg/mL (≈ 3.34 µM) | Activity [5]: 88% | MIC [6]: 0.25 µg/mL (≈ 0.835 µM) | MIC50 [7]: 1 µg/mL (≈ 3.34 µM) | MIC90 [7]: 2 µg/mL (≈ 6.68 µM) | MIC50 [8]: 0.25 µg/mL (≈ 0.835 µM) | MIC90 [8]: 0.5 µg/mL (≈ 1.67 µM) | MIC50 [9]: 0.5 µg/mL (≈ 1.67 µM) | MIC90 [9]: 1 µg/mL (≈ 3.34 µM) | Activity [10]: 77.8% | MIC50 [11]: 1 µg/mL (≈ 3.34 µM) | MIC90 [11]: 2 µg/mL (≈ 6.68 µM) | MIC50 [12]: 1 µg/mL (≈ 3.34 µM) | MIC90 [12]: > 64 µg/mL | MIC50 [13]: 0.5 µg/mL (≈ 1.67 µM) | MIC90 [13]: 1 µg/mL (≈ 3.34 µM) | Activity [14]: 87% | MIC50 [15]: 0.5 µg/mL (≈ 1.67 µM) | MIC90 [15]: 8 µg/mL (≈ 26.7 µM) | Activity [16]: 97.1% | MIC50 [17]: 0.5 µg/mL (≈ 1.67 µM) | MIC90 [17]: 8 µg/mL (≈ 26.7 µM) | Activity [18]: 88% | Activity [19]: 93% | Activity [20]: 64.6% | Activity [21]: 38.5% | Activity [22]: 86% | Activity [23]: 92% | MIC50 [24]: 2 µg/mL (≈ 6.68 µM) | MIC90 [24]: > 8 µg/mL | Activity [25]: 98% | MIC50 [26]: 1 µg/mL (≈ 3.34 µM) | MIC90 [26]: > 64 µg/mL | MIC50 [27]: 0.25 µg/mL (≈ 0.835 µM) | MIC90 [27]: 8 µg/mL (≈ 26.7 µM) | Activity [28]: 54.7%

Cc1onc(-c2ccccc2)c1C(=O)N[C@@H]1C(=O)N2[C@@H]1SC(C)(C)[C@@H]2C(=O)O [OXACILLIN]
Activity [29]: 31.7% | MIC50 [30]: 0.5 µg/mL (≈ 1.25 µM) | MIC90 [30]: > 8 µg/mL | MIC50 [31]: 1 µg/mL (≈ 2.49 µM) | MIC50 [32]: 0.5 µg/mL (≈ 1.25 µM) | MIC90 [32]: 1 µg/mL (≈ 2.49 µM) | Activity [33]: 55.6% | Activity [34]: 46% | MIC90 [35]: inactive | MIC50 [36]: 0.25 µg/mL (≈ 0.623 µM) | MIC90 [36]: > 8 µg/mL | MIC50 [37]: > 8 µg/mL | MIC90 [37]: > 8 µg/mL | Activity [38]: 78.9% | MIC50 [39]: 0.12 µg/mL (≈ 0.299 µM) | MIC50 [40]: 0.5 µg/mL (≈ 1.25 µM) | MIC90 [40]: > 8 µg/mL | MIC50 [41]: > 8 µg/mL | MIC90 [41]: > 8 µg/mL | Activity [42]: 16% | MIC50 [43]: > 8 µg/mL | MIC90 [43]: > 8 µg/mL | Activity [44]: 36.4% | MIC90 [45]: inactive | Activity [46]: 60% | Activity [47]: 16.7% | MIC50 [48]: 4 µg/mL (≈ 9.96 µM) | MIC90 [48]: 8 µg/mL (≈ 19.9 µM) | Activity [49]: 9.9%

O=C(O)c1cn(C2CC2)c2cc(N3CCNCC3)c(F)cc2c1=O
MIC90 [35]: inactive | MIC90 [45]: inactive
